Experiments:
Type in all cases: in vivo
[1] = system: EPHHL (Euphorbia heterophylla); test: Post-emergence greenhouse herbicide test, visual rating; conditions: for EPHHL Expected: Colby formula; for EPHHL synerg.: observed minus expected; for EPHHL Observed: post-emergence, 21 days after application
Method: (§1) Seeds of grass and broadleaf weeds were sown in pots (diameter: 7 cm) filled with a sandy loam soil. Following germination the plants were grown under optimal conditions up to a growth stage of BBCH 11 to 14 depending on species.
(§2) The applications were performed by post emergence treatments on the planted pots using a spray volume of 300 L water per hectare. The herbicides were applied alone and in combination as described.
(§3) The trial was conducted in the greenhouse ensuring optimal growing conditions.
(§4) The herbicidal effects were assessed 21 days following application by visual ratings comparing treated and untreated plants (0%=no effect to 100%=complete die-off).
(§5) The compounds of the formula (Ia), (Ib) and (I) were formulated as WP (wettable powder) formulation.
(§6) • BBCH=the BBCH code provides information about the morphological development stage of a plant. Officially, the abbreviation denotes the Biologische Bundesanstalt, Bundessortenamt and Chemische Industrie [Federal Biological Institute for Agriculture and Forestry, Federal Office for Crop Plant Varieties and Chemical Industry]. The range of BBCH 00-10 denotes the germination stages of the seeds until surface penetration. The range of BBCH 11-25 denotes the leaf development stages until stocking (corresponding to the number of tillers or side-shoots). In the Trials, the Following Biotypes of Broad-Leaved Weeds and Weed Grasses were Used: • ALOMY—sensitive (Alopecurus myosuroides) sensitive to customary herbicidally active compounds. • ALOMY_R (resistant) (Alopecurus myosuroides) resistant to herbicidally active compounds of the HRAC groups A and B; population mixture of field origin having increased metabolic resistance (IMR) and some target site resistance (TSR). • LOLRI—sensitive (Lolium rigidum) sensitive to customary herbicidally active compounds. • LOLRI_R (resistant) (Lolium rigidum) resistant to herbicidally active compounds of the HRAC groups A and B; population mixture of field origin having increased metabolic resistance (IMR) and some target site resistance (TSR). • AMAPA_R (resistant) (Amaranthus palmeri) resistant to herbicidally active compounds of the HRAC groups A and B; population mixture of field origin having increased metabolic resistance (IMR) and some target site resistance (TSR). • CHRVI (Chloris virgate) feather finger grass • KCHSC (Kochia scoparia) Mexican burning bush • MATIN (Matricaria inodora) false chamomile • POLCO (Polygonum convolvulus) black knotweed • ABUTH (Abutilon theophrasti) china jute • AMAPA (Amaranthus palmeri) palmer amaranth • BIDPI (Bidens pilosa) common blackjack • CHEAL (Chenopodium album) common lambsquarters • EPHHL (Euphorbia heterophylla) wild spurge • XANST (Xanthium strumarium) large cocklebur • EMEAU (Emex australis)—Cathead • GALAP (Gallium aparine)—Cleaver
(§7) The synergistic herbicidal activity was calculated using Colby's formula (cf. S. R. Colby; Weeds 15 (1967), 20-22): […]

[2] = system: ABUTH (Abutilon theophrasti); test: as above; conditions: for ABUTH Expected: Colby formula; for ABUTH synerg.: observed minus expected; for ABUTH Observed: post-emergence, 21 days after application
Method: as §1, §2, §3, §4, §5, §6, §7

[3] = system: LOLRI - sensitive (Lolium rigidum); test: as above; conditions: for LOLRI Expected: Colby formula; for LOLRI Synergism: observed minus expected; for LOLRI Observed: post-emergence, 21 days after application
Method: as §1, §2, §3, §4, §5, §6, §7

[4] = system: AMAPA-R (resistant) (Amaranthus palmeri); test: as above; conditions: 25 g/ha (Ia) + 25 g/ha (Ib)
Method: as §1, §2, §3, §4, §5, §6, §7

[5] = system: BID PI (Bidens pilosa); test: as above; conditions: 25 g/ha (Ia) + 25 g/ha (Ib)
Method: as §1, §2, §3, §4, §5, §6, §7

[6] = system: EMEAU (Emex australis); test: as above; conditions: 12.5 g/ha (row as printed)
Method: as §1, §2, §3, §4, §5, §6, §7

[7] = system: MATIN (Matricaria inodora); test: as above; conditions: for MATIN Expected: Colby formula; for MATIN Synergism: observed minus expected; for MATIN Observed: post-emergence, 21 days after application
Method: as §1, §2, §3, §4, §5, §6, §7

[8] = system: CHRVI (Chloris virgate); test: as above; conditions: 12.5 g/ha
Method: as §1, §2, §3, §4, §5, §6, §7

[9] = system: CHEAL (Chenopodium album); test: as above; conditions: 25 g/ha (Ia) + 25 g/ha (Ib)
Method: as §1, §2, §3, §4, §5, §6, §7

[10] = system: LOLRI_R (resistant) (Lolium rigidum); test: as above; conditions: for LOLRI_R Expected: Colby formula; for LOLRI_R Synergism: observed minus expected; for LOLRI_R Observed: post-emergence, 21 days after application
Method: as §1, §2, §3, §4, §5, §6, §7

[11] = system: KCHSC (Kochia scoparia); test: as above; conditions: 12.5 g/ha
Method: as §1, §2, §3, §4, §5, §6, §7

[12] = system: GALAP (Gallium aparine); test: as above; conditions: 50 g/ha
Method: as §1, §2, §3, §4, §5, §6, §7

[13] = system: XANST (Xanthium strumarium); test: as above; conditions: for XANST Expected: Colby formula; for XANST synerg.: observed minus expected; for XANST Observed: post-emergence, 21 days after application
Method: as §1, §2, §3, §4, §5, §6, §7

[14] = system: POLCO (Polygonum convolvulus); test: as above; conditions: 12.5 g/ha
Method: as §1, §2, §3, §4, §5, §6, §7

[15] = system: grass and broadleaf weeds; test: Comparative testing of crystalline (I), (Ia), (Ib), summary of tables 3 to 6; conditions: see tables 3 to 6
Method: as §1, §2, §3, §4, §5, §7

[16] = post-emergence, 21 days after application

C=C[C@]1(C(=O)N[C@H]2CO[C@@H](C(=O)OC)C2)CC(c2cc(F)cc(F)c2)=NO1 (relative stereo) [(I), methyl(2R*,4R*)-4-[[(5S)-3-(3,5-difluorophenyl)-5-vinyl-4H-isoxazole-5-carbonyl]amino]tetrahydrofuran-2-carboxylate]
EPHHL Expected ([1]; 25 g/ha (Ia) + 25 g/ha (Ib)): 55%
EPHHL synerg. ([1]; 25 g/ha (Ia) + 25 g/ha (Ib)): 11%
EPHHL Observed ([1]; 25 g/ha (Ia) + 25 g/ha (Ib)): 65%
EPHHL Expected ([1]; 50 g/ha (Ia) + 50 g/ha (Ib)): 58%
EPHHL synerg. ([1]; 50 g/ha (Ia) + 50 g/ha (Ib)): 12%
EPHHL Observed ([1]; 50 g/ha (Ia) + 50 g/ha (Ib)): 70%
ABUTH Expected ([2]; 25 g/ha (Ia) + 25 g/ha (Ib)): 51%
ABUTH synerg. ([2]; 25 g/ha (Ia) + 25 g/ha (Ib)): 25%
ABUTH Observed ([2]; 25 g/ha (Ia) + 25 g/ha (Ib)): 75%
ABUTH Expected ([2]; 50 g/ha (Ia) + 50 g/ha (Ib)): 68%
ABUTH synerg. ([2]; 50 g/ha (Ia) + 50 g/ha (Ib)): 7%
ABUTH Observed ([2]; 50 g/ha (Ia) + 50 g/ha (Ib)): 75%
LOLRI Expected ([3]; 6.25 g/ha): 20%
LOLRI Synergism ([3]; 6.25 g/ha): 55%
LOLRI Observed ([3]; 6.25 g/ha): 75%
LOLRI Expected ([3]; 12.5 g/ha): 90%
LOLRI Synergism ([3]; 12.5 g/ha): 5%
LOLRI Observed ([3]; 12.5 g/ha): 95%
AMAPA-R Expected ([4]; Colby formula): 51%
AMAPA-R synerg. ([4]; observed minus expected): 14%
AMAPA-R Observed [4, 16]: 65%
BID PI Expected ([5]; Colby formula): 37%
BID PI synerg. ([5]; observed minus expected): 28%
BID PI Observed [5, 16]: 65%
EMEAU Expected ([6]; Colby formula): 89%
EMEAU Synergism ([6]; observed minus expected): 8%
EMEAU Observed [6, 16]: 97%
MATIN Expected ([7]; 12.5 g/ha): 0%
MATIN Synergism ([7]; 12.5 g/ha): 15%
MATIN Observed ([7]; 12.5 g/ha): 15%
MATIN Expected ([7]; 25 g/ha): 0%
MATIN Synergism ([7]; 25 g/ha): 15%
MATIN Observed ([7]; 25 g/ha): 15%
MATIN Expected ([7]; 50 g/ha): 0%
MATIN Synergism ([7]; 50 g/ha): 20%
MATIN Observed ([7]; 50 g/ha): 20%
CHRVI Expected ([8]; Colby formula): 48%
CHRVI Synergism ([8]; observed minus expected): 47%
CHRVI Observed [8, 16]: 95%
CHEAL Expected ([9]; Colby formula): 76%
CHEAL synerg. ([9]; observed minus expected): 19%
CHEAL Observed [9, 16]: 95%
LOLRI_R Expected ([10]; 6.25 g/ha): 15%
LOLRI_R Synergism ([10]; 6.25 g/ha): 15%
LOLRI_R Observed ([10]; 6.25 g/ha): 30%
LOLRI_R Expected ([10]; 12.5 g/ha): 20%
LOLRI_R Synergism ([10]; 12.5 g/ha): 20%
LOLRI_R Observed ([10]; 12.5 g/ha): 40%
LOLRI_R Expected ([10]; 25 g/ha): 30%
LOLRI_R Synergism ([10]; 25 g/ha): 10%
LOLRI_R Observed ([10]; 25 g/ha): 40%
KCHSC Expected ([11]; Colby formula): 82%
KCHSC Synergism ([11]; observed minus expected): 13%
KCHSC Observed [11, 16]: 95%
GALAP Expected ([12]; Colby formula): 84%
GALAP Synergism ([12]; observed minus expected): 6%
GALAP Observed [12, 16]: 90%
XANST Expected ([13]; 25 g/ha (Ia) + 25 g/ha (Ib)): 0%
XANST synerg. ([13]; 25 g/ha (Ia) + 25 g/ha (Ib)): 35%
XANST Observed ([13]; 25 g/ha (Ia) + 25 g/ha (Ib)): 35%
XANST Expected ([13]; 50 g/ha (Ia) + 50 g/ha (Ib)): 28%
XANST synerg. ([13]; 50 g/ha (Ia) + 50 g/ha (Ib)): 7%
XANST Observed ([13]; 50 g/ha (Ia) + 50 g/ha (Ib)): 35%
XANST Expected ([13]; 100 g/ha (Ia) + 100 g/ha (Ib)): 36%
XANST synerg. ([13]; 100 g/ha (Ia) + 100 g/ha (Ib)): 29%
XANST Observed ([13]; 100 g/ha (Ia) + 100 g/ha (Ib)): 65%
POLCO Expected ([14]; Colby formula): 91%
POLCO Synergism ([14]; observed minus expected): 4%
POLCO Observed [14, 16]: 95%
herbicidal activity compared with the other crystalline forms ([15]; (I) vs (Ia), (Ia) vs (Ib)): superior in herbicidal activity
synergistic effect of the physical mixture of (Ia) and (Ib) [15]: synergistic effect
